Laboratory results published in patent US10681909B2, “Herbicidal triazoles” (FMC Corporation, priority 2014, dated 2020).

Key:
galium [1] = experiment: Test C preemergence; format: in vivo, Galium aparine; conditions: for Plant response rating (scale of 0 to 100 where 0 is no effect and 100 is complete control): Galium, preemergence; for Galium plant response rating (0 to 100): Preemergence, visual rating after 13 to 15 d
From the text: (§1) Seeds of plant species selected from blackgrass (Alopecurus myosuroides), ryegrass, Italian (Italian ryegrass, Lolium multiflorum), wheat (winter wheat, Triticum aestivum), galium (catchweed bedstraw, Galium aparine), corn (Zea mays), crabgrass, large (large crabgrass, Digitaria sanguinalis), foxtail, giant, (giant foxtail, Setaria faberii), johnsongrass (Sorghum halepense), lambsquarters (Chenopodium album), morningglory (Ipomoea coccinea), nutsedge, yellow (yellow nutsedge, Cyperus esculentus), pigweed (Amaranthus retroflexus), ragweed (common ragweed, Ambrosia elatior), soybean (Glycine max), barnyardgrass (Echinochloa crus-galli), oilseed rape (Brassica napus), waterhemp (common waterhemp, Amaranthus rudis), and velvetleaf (Abutilon theophrasti) were planted into a blend of loam soil and sand and treated preemergence with test chemicals formulated in a non-phytotoxic solvent mixture which included a surfactant. At the same time, plants selected from these crop and weed species and also chickweed (common chickweed, Stellaria media), oat, wild (wild oat, Avena fatua), and kochia (Kochia scoparia), were planted in pots containing Sunshine Redi-Earth® planting medium comprising spaghnum peat moss, vermiculite, starter nutrients and dolomitic limestone and treated with postemergence applications of test chemicals formulated in the same manner. Plants ranged in height from 2 to 18 cm (1- to 4-leaf stage) for postemergence treatments. […] A dash (-) response means no test result.

speedwell = experiment: Test D preemergence; format: in vivo, Veronica persica; conditions: for Plant response rating (0 to 100), Speedwell: 16 g ai/ha, 0 is no effect, 100 is complete control; for Plant response rating: Speedwell: scale 0 to 100
From the text: (§2) Seeds of plant species selected from bluegrass (annual bluegrass, Poa annua), blackgrass (Alopecurus myosuroides), canarygrass (Phalaris minor), chickweed (common chickweed, Stellaria media), galium (catchweed bedstraw, Galium aparine), bromegrass, down (downy bromegrass, Bromus tectorum), Russian thistle (Salsola kali), field poppy (Papaver rhoeas), field violet (Viola arvensis), foxtail, green (green foxtail, Setaria viridis), deadnettle (henbit deadnettle, Lamium amplexicaule), ryegrass, Ital. (Italian ryegrass, Lolium multiflorum), kochia (Kochia scoparia), lambsquarters (Chenopodium album), oilseed rape (Brassica napus), pigweed (Amaranthus retroflexus), chamomile (scentless chamomile, Matricaria inodora), speedwell (bird's-eye speedwell, Veronica persica), barley, spring (spring barley, Hordeum vulgare), wheat, spring (spring wheat, Triticum aestivum), buckwheat, wild (wild buckwheat, Polygonum convolvulus), wild mustard (Sinapis arvensis), oat, wild (wild oat, Avena fatua), radish, wild (wild radish, Raphanus raphanistrum), […]), barley, winter (winter barley, Hordeum vulgare), and wheat, winter (winter wheat, Triticum aestivum) were planted into a silt loam soil and treated preemergence with test chemicals formulated in a non-phytotoxic solvent mixture which included a surfactant. At the same time, these species were planted in pots containing Sunshine Redi-Earth® planting medium comprising spaghnum peat moss, vermiculite, starter nutrients and dolomitic limestone and treated with postemergence applications of the test chemicals formulated in the same manner. Plants ranged in height from 2 to 18 cm (1- to 4-leaf stage). Treated plants and controls were maintained in a controlled growth environment for 14 to 21 d after which time all species were compared to controls and visually evaluated. […] A dash (-) response means no test result.

morningglory = experiment: Test C preemergence; format: in vivo, Ipomoea coccinea; conditions: for Plant response rating (scale of 0 to 100 where 0 is no effect and 100 is complete control): Morningglory, preemergence; for Morningglory plant response rating (0 to 100): Preemergence, visual rating after 13 to 15 d
From the text: as §1

foxtail, green = experiment: Test D postemergence; format: in vivo, Setaria viridis; conditions: scale 0 to 100
From the text: as §2

chickweed = experiment: Test D postemergence; format: in vivo, Stellaria media; conditions: scale 0 to 100
From the text: as §2

bluegrass = experiment: Test D postemergence; format: in vivo, Poa annua; conditions: scale 0 to 100
From the text: as §2

barley, spring = experiment: Test D postemergence; format: in vivo, Hordeum vulgare; conditions: scale 0 to 100
From the text: as §2

barley, winter = experiment: Test D postemergence; format: in vivo, Hordeum vulgare; conditions: scale 0 to 100
From the text: as §2

galium [2] = experiment: Test D preemergence; format: in vivo, Galium aparine; conditions: for Plant response rating (0 to 100), Galium: 16 g ai/ha, 0 is no effect, 100 is complete control; for Plant response rating: Galium: scale 0 to 100
From the text: as §2

chamomile = experiment: Test D preemergence; format: in vivo, Matricaria inodora; conditions: for Plant response rating (0 to 100), Chamomile: 16 g ai/ha, 0 is no effect, 100 is complete control; for Plant response rating: Chamomile: scale 0 to 100
From the text: as §2

pigweed = experiment: Test C preemergence; format: in vivo, Amaranthus retroflexus; conditions: for Plant response rating (scale of 0 to 100 where 0 is no effect and 100 is complete control): Pigweed, preemergence; for Pigweed plant response rating (0 to 100): Preemergence, visual rating after 13 to 15 d
From the text: as §1

bromegrass, down = experiment: Test D postemergence; format: in vivo, Bromus tectorum; conditions: scale 0 to 100
From the text: as §2

FC(F)(F)COc1nc(-c2ccc(Cl)cc2)nn1Cc1ccnc(C(F)(F)F)c1 [Compound 31]
Plant response rating (scale of 0 to 100 where 0 is no effect and 100 is complete control) (galium [1]; 125 g ai/ha): 30 | Plant response rating (scale of 0 to 100 where 0 is no effect and 100 is complete control) (galium [1]; 250 g ai/ha): 35 | Galium plant response rating (0 to 100) (galium [1]; 31 g ai/ha): 5 | Galium plant response rating (0 to 100) (galium [1]; 62 g ai/ha): 30 | Plant response rating (0 to 100), Speedwell (speedwell): 100 | Plant response rating: Speedwell (speedwell; 62 g ai/ha): 100 | Plant response rating: Speedwell (speedwell; 125 g ai/ha): 100 | Plant response rating (scale of 0 to 100 where 0 is no effect and 100 is complete control) (morningglory; 125 g ai/ha): 55 | Plant response rating (scale of 0 to 100 where 0 is no effect and 100 is complete control) (morningglory; 250 g ai/ha): 65 | Morningglory plant response rating (0 to 100) (morningglory; 31 g ai/ha): 25 | Morningglory plant response rating (0 to 100) (morningglory; 62 g ai/ha): 45 | Plant response rating: Foxtail, Green (foxtail, green; 16 g ai/ha): 70 | Plant response rating: Foxtail, Green (foxtail, green; 31 g ai/ha): 80 | Plant response rating: Foxtail, Green (foxtail, green; 62 g ai/ha): 80 | Plant response rating: Foxtail, Green (foxtail, green; 125 g ai/ha): 85 | Plant response rating: Chickweed (chickweed; 16 g ai/ha): 80 | Plant response rating: Chickweed (chickweed; 31 g ai/ha): 90 | Plant response rating: Chickweed (chickweed; 62 g ai/ha): 100 | Plant response rating: Chickweed (chickweed; 125 g ai/ha): 100 | Plant response rating: Bluegrass (bluegrass; 16 g ai/ha): 50 | Plant response rating: Bluegrass (bluegrass; 31 g ai/ha): 65 | Plant response rating: Bluegrass (bluegrass; 62 g ai/ha): 75 | Plant response rating: Bluegrass (bluegrass; 125 g ai/ha): 85 | Plant response rating: Barley, Spring (barley, spring; 16 g ai/ha): 35 | Plant response rating: Barley, Spring (barley, spring; 31 g ai/ha): 45 | Plant response rating: Barley, Spring (barley, spring; 62 g ai/ha): 45 | Plant response rating: Barley, Spring (barley, spring; 125 g ai/ha): 50 | Plant response rating: Barley, Winter (barley, winter; 16 g ai/ha): 25 | Plant response rating: Barley, Winter (barley, winter; 31 g ai/ha): 35 | Plant response rating: Barley, Winter (barley, winter; 62 g ai/ha): 40 | Plant response rating: Barley, Winter (barley, winter; 125 g ai/ha): 50 | Plant response rating (0 to 100), Galium (galium [2]): 70 | Plant response rating: Galium (galium [2]; 62 g ai/ha): 80 | Plant response rating: Galium (galium [2]; 125 g ai/ha): 90 | Plant response rating (0 to 100), Chamomile (chamomile): 30 | Plant response rating: Chamomile (chamomile; 31 g ai/ha): 95 | Plant response rating: Chamomile (chamomile; 62 g ai/ha): 100 | Plant response rating: Chamomile (chamomile; 125 g ai/ha): 100 | Plant response rating (scale of 0 to 100 where 0 is no effect and 100 is complete control) (pigweed; 125 g ai/ha): 100 | Plant response rating (scale of 0 to 100 where 0 is no effect and 100 is complete control) (pigweed; 250 g ai/ha): 100 | Pigweed plant response rating (0 to 100) (pigweed; 31 g ai/ha): 98 | Pigweed plant response rating (0 to 100) (pigweed; 62 g ai/ha): 100 | Plant response rating: Bromegrass, Down (bromegrass, down; 16 g ai/ha): 25 | Plant response rating: Bromegrass, Down (bromegrass, down; 31 g ai/ha): 45 | Plant response rating: Bromegrass, Down (bromegrass, down; 62 g ai/ha): 50 | Plant response rating: Bromegrass, Down (bromegrass, down; 125 g ai/ha): 70

COc1nc(-c2ccc(Cl)cc2)nn1Cc1ccnc(C(F)(F)F)c1 [Compound 28]
Plant response rating (0 to 100), Speedwell (speedwell): 75 | Plant response rating: Speedwell (speedwell; 62 g ai/ha): 100 | Plant response rating: Speedwell (speedwell; 125 g ai/ha): 100 | Plant response rating: Foxtail, Green (foxtail, green; 16 g ai/ha): 25 | Plant response rating: Foxtail, Green (foxtail, green; 31 g ai/ha): 35 | Plant response rating: Foxtail, Green (foxtail, green; 62 g ai/ha): 60 | Plant response rating: Foxtail, Green (foxtail, green; 125 g ai/ha): 80 | Plant response rating: Chickweed (chickweed; 16 g ai/ha): 65 | Plant response rating: Chickweed (chickweed; 31 g ai/ha): 70 | Plant response rating: Chickweed (chickweed; 62 g ai/ha): 70 | Plant response rating: Chickweed (chickweed; 125 g ai/ha): 90 | Plant response rating: Bluegrass (bluegrass; 16 g ai/ha): 20 | Plant response rating: Bluegrass (bluegrass; 31 g ai/ha): 20 | Plant response rating: Bluegrass (bluegrass; 62 g ai/ha): 45 | Plant response rating: Bluegrass (bluegrass; 125 g ai/ha): 40 | Plant response rating: Barley, Spring (barley, spring; 16 g ai/ha): 15 | Plant response rating: Barley, Spring (barley, spring; 31 g ai/ha): 20 | Plant response rating: Barley, Spring (barley, spring; 62 g ai/ha): 20 | Plant response rating: Barley, Spring (barley, spring; 125 g ai/ha): 25 | Plant response rating: Barley, Winter (barley, winter; 16 g ai/ha): 10 | Plant response rating: Barley, Winter (barley, winter; 31 g ai/ha): 15 | Plant response rating: Barley, Winter (barley, winter; 62 g ai/ha): 20 | Plant response rating: Barley, Winter (barley, winter; 125 g ai/ha): 25 | Plant response rating (0 to 100), Galium (galium [2]): 65 | Plant response rating: Galium (galium [2]; 62 g ai/ha): 75 | Plant response rating: Galium (galium [2]; 125 g ai/ha): 80 | Plant response rating (0 to 100), Chamomile (chamomile): 0 | Plant response rating: Chamomile (chamomile; 31 g ai/ha): 20 | Plant response rating: Chamomile (chamomile; 62 g ai/ha): 75 | Plant response rating: Chamomile (chamomile; 125 g ai/ha): 95 | Plant response rating: Bromegrass, Down (bromegrass, down; 16 g ai/ha): 20 | Plant response rating: Bromegrass, Down (bromegrass, down; 31 g ai/ha): 20 | Plant response rating: Bromegrass, Down (bromegrass, down; 62 g ai/ha): 25 | Plant response rating: Bromegrass, Down (bromegrass, down; 125 g ai/ha): 35
